Data on 1 compound can be found in ChEMBL document CHEMBL1156538, “Microwave-assisted solid phase synthesis, PEGylation, and biological activity studies of glucagon-like peptide-1(7-36) amide” (2008).

Assay type in all cases: functional
Test [1] deals with Mus musculus. The experiment in a line: Decrease in blood glucose level in Kunming mouse at 25 nmol/kg, ip administered 90 mins before 18 mmol/kg, ip glucose injection after 30 mins.
For test [2], the system named is Mus musculus. The experiment in a line: Decrease in blood glucose level in Kunming mouse at 25 nmol/kg, ip administered 90 mins before 18 mmol/kg, ip glucose injection after 45 mins.
Test [3] deals with Mus musculus. The test can be described thus: Decrease in blood glucose level in Kunming mouse at 25 nmol/kg, ip administered 90 mins before 18 mmol/kg, ip glucose injection after 60 mins.
For test [4], the system named is Mus musculus. The experiment in a line: Decrease in blood glucose level in Kunming mouse at 25 nmol/kg, ip administered simultaneously with glucose at 18 mmol/kg, ip after 15 mins.
In test [5] the test system is Mus musculus. The experiment in a line: Decrease in blood glucose level in Kunming mouse at 25 nmol/kg, ip administered simultaneously with glucose at 18 mmol/kg, ip after 30 mins.
The test system of test [6] is Mus musculus. The test can be described thus: Decrease in blood glucose level in Kunming mouse at 25 nmol/kg, ip administered simultaneously with glucose at 18 mmol/kg, ip after 45 mins.
Test [7] deals with Mus musculus. The test can be described thus: Decrease in blood glucose level in Kunming mouse at 25 nmol/kg, ip administered simultaneously with glucose at 18 mmol/kg, ip after 60 mins.
Test [8] has as its system Mus musculus. The test can be described thus: Decrease in blood glucose level in Kunming mouse at 25 nmol/kg, ip administered 90 mins before 18 mmol/kg, ip glucose injection after 15 mins.

Regarding `CC[C@H](C)[C@H](NC(=O)[C@H](Cc1ccccc1)NC(=O)[C@H](CCC(=O)O)NC(=O)[C@H](CCCCN)NC(=O)[C@H](C)NC(=O)[C@H](C)NC(=O)[C@H](CCC(N)=O)NC(=O)CNC(=O)[C@H](CCC(=O)O)NC(=O)[C@H](CC(C)C)NC(=O)[C@H](Cc1ccc(O)cc1)NC(=O)[C@H](CO)NC(=O)[C@H](CO)NC(=O)[C@@H](NC(=O)[C@H](CC(=O)O)NC(=O)[C@H](CO)NC(=O)[C@@H](NC(=O)[C@H](Cc1ccccc1)NC(=O)[C@@H](NC(=O)CNC(=O)[C@H](CCC(=O)O)NC(=O)CNC(=O)[C@@H](N)Cc1cnc[nH]1)[C@@H](C)O)[C@@H](C)O)C(C)C)C(=O)N[C@@H](C)C(=O)N[C@@H](Cc1c[nH]c2ccccc12)C(=O)N[C@@H](CC(C)C)C(=O)N[C@H](C(=O)N[C@@H](CCCCN)C(=O)NCC(=O)N[C@@H](CCCNC(=N)N)C(N)=O)C(C)C`, the Activity with Mus musculus [1] is given as 14.67 mmol/L; in the test with Mus musculus [2], 10.23 mmol/L; with Mus musculus [3] it was 9.18 mmol/L; in the test with Mus musculus [4] it was 12.98 mmol/L; with Mus musculus [5] it was 8.27 mmol/L; in the test with Mus musculus [6], 7.7 mmol/L. For the same compound, the Activity was found to be 7.18 mmol/L with Mus musculus [7] and 17.92 mmol/L in the test on Mus musculus [8].
